Patent US8080566B1, “Carbazole inhibitors of histamine receptors for the treatment of disease” (Kalypsys, Inc, priority 2008, dated 2011)

Experiments:
[1] = biological target: human histamine receptor type 4 (Homo sapiens, UniProt Q9H3N8); assay: In vitro histamine receptor cell-based assay, H4R antagonist (aequorin bioluminescence); conditions: CHO-K1 cells expressing human H4 receptor, aequorin and Gα16; histamine at EC80
From the text: (§1) In Vitro Histamine Receptor Cell-Based Assays
(§2) The assays are based on an aequorin dependent bioluminescence signal, generated by receptor signaling through Gq/11 or a similarly acting G protein and a resulting transient calcium flux. Doubly-transfected, stable CHO-K1 cell lines expressing human histamine receptor type 1 or type 4, mitochondrion-targeted aequorin, and (histamine type 4 receptor only) human G protein Gα16 are obtained from Perkin-Elmer (Histamine H1 cell line, catalog ES-390-A; Histamine H4 cell line, catalog ES-393-A). Cells are maintained on conventional culture plasticware in F12 (Ham's) growth medium containing 10% (vol./vol.) fetal bovine serum, penicillin (100 IU/ml), streptomycin (0.1 mg/ml), zeocin (0.25 mg/ml) and geneticin (0.40 mg/ml), as per the manufacturer's instructions (all components from Invitrogen, Inc.). One day prior to assay, the growth medium is replaced with the same, excluding zeocin and geneticin.
(§3) To prepare cells for a histamine receptor assay, growth medium is aspirated, and the cells are rinsed with calcium-free, magnesium-free phosphate-buffered saline. The rinse is aspirated and replaced with Versene (Invitrogen, Inc.) and the cells incubated for two to three minutes at 37° C., followed by tapping the plate to fully dislodge cells. Assay medium (DMEM:F12 [50:50], phenol-red free, containing 1 mg/ml protease-free bovine serum albumin) is added to collect the cells, which are then transferred to a conical tube for centrifugation. The cell pellet is re-suspended in assay medium, and the cell density is determined by counting with a hemacytometer. The cells are then centrifuged again and re-suspended in assay medium to a final density of 5×10^6 cells/ml. Coelenterazine-h dye (500 μM in ethanol) is then added to a final concentration of 5 μM, and mixed immediately. The conical tube containing the cells is then wrapped with foil to protect the light sensitive dye. The cells are incubated for four hours further at normal room temperature (approximately 21° C.) with vertical rotation to keep them in suspension.
(§4) Just before assay, the dye-loaded cells are diluted to 0.75×10^6 cells/ml (H1 receptor) or 1.5×10^6 cells/ml (H4 receptor) with additional assay medium. Cells are dispensed to 1536 well microtiter plates at 3 μl/well. To assay receptor antagonist activity, […] of 100× concentration test compounds in dimethyl sulfoxide (DMSO) are dispensed to the wells, one compound per well, by passive pin transfer, and the plates are incubated for 15 minutes at room temperature. Assay plates are then transferred to a Lumilux (Perkin-Elmer) bioluminescence plate reader equipped with an automated 1536 well disposable tip pipette. The pipette then dispenses 3 μl/well of agonist (histamine, at twice the final concentration, where final concentration is a previously determined EC80 for response), with concurrent bioluminescence detection.
(§5) CCD imaging capture on the Lumilux instrument includes a 5 second baseline read prior to agonist addition, generally with a 40 second complete read per plate. A decrease in bioluminescence signal (measured either as area-under-the-curve, or maximum signal amplitude minus minimum signal amplitude) correlates with receptor antagonism. Negative control activity is measured with DMSO lacking any test compound. For receptor antagonist assays, positive control activity is measured with diphenhydramine (2-Diphenylmethoxy-N,N-dimethylethylamine, 10 μM final concentration, H1 receptor) or JNJ7777120 (1-[(5-Chloro-1H-indol-2-yl)carbonyl]-4-methyl-piperazine, 10 μM final concentration, H4 receptor). For receptor agonist assays, positive activity is measured with histamine (10 μM final concentration). Efficacy is measured as a percentage of positive control activity.

[2] = biological target: human histamine receptor type 1 (Homo sapiens, UniProt P35367); assay: In vitro histamine receptor cell-based assay, H1R antagonist (aequorin bioluminescence); conditions: CHO-K1 cells expressing human H1 receptor and aequorin; histamine at EC80
From the text: as §1, §2, §3, §4, §5

Sequence of human histamine receptor type 1 (P35367 whole entry): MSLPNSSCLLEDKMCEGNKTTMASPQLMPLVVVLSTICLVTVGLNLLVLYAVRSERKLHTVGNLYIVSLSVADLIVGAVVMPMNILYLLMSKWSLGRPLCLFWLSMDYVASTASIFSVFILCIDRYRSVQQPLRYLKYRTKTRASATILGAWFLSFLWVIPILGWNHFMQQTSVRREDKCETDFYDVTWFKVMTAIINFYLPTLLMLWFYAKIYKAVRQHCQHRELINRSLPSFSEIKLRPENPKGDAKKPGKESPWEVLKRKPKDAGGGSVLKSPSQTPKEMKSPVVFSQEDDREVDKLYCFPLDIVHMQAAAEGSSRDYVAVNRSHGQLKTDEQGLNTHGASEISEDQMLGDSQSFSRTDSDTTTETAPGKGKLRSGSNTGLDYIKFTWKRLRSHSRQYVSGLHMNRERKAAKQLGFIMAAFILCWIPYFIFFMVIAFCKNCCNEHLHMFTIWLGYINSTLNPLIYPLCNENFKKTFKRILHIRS
Sequence of human histamine receptor type 4 (Q9H3N8 whole entry): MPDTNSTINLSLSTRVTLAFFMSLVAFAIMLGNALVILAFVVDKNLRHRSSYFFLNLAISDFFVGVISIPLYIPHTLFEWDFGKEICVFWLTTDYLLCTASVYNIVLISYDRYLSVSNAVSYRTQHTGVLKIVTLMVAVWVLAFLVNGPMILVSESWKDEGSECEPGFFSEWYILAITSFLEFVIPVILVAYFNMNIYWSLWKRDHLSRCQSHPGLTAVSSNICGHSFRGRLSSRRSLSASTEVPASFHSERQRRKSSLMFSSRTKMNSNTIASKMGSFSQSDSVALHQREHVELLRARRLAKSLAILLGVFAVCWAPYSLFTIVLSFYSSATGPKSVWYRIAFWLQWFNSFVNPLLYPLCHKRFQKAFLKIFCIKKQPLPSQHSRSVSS

SMILES	IC50 [1] [µM]	IC50 [2] [µM]
CCn1c2ccccc2c2cc(CN3CCCC(C(=O)NC)C3)ccc21 (centres unmarked) [Example 16, 1-((9-ethyl-9H-carbazol-3-yl)methyl)-N-methylpiperidine-3-carboxamide]	0.34	0.95
CCn1c2ccccc2c2cc(CN3CCCC(c4cnc[nH]4)C3)ccc21 (centres unmarked) [Example 21, 3-((3-(1H-Imidazol-5-yl)piperidin-1-yl)methyl)-9-ethyl-9H-carbazolee]	2.75	1.35
CCn1c2ccccc2c2cc(CN3CCN(C)CC3)ccc21 [Example 25, 9-ethyl-3-((4-methylpiperazin-1-yl)methyl)-9H-carbazole]	0.66	2.58
CCn1c2ccccc2c2cc(CN3CCNCC3)ccc21 [Example 9, 9-Ethyl-3-(piperazin-1-ylmethyl)-9H-carbazole]	12.6	46.4
CN(C)CCCn1c2ccccc2c2cc(CN3CCCC(c4ccn[nH]4)C3)ccc21 (centres unmarked) [Example 26, 3-(3-((3-(1H-pyrazol-5-yl)piperidin-1-yl)methyl)-9H-carbazol-9-yl)-N,N-dimethylpropan-1-amine]	19.8	21.1
CN(C)CCCn1c2ccccc2c2cc(CN3CCCC(N)C3)ccc21 (centres unmarked) [Example 28, 1-((9-(3-(dimethylamino)propyl)-9H-carbazol-3-yl)methyl)piperidin-3-amine]	55.9	> 30
CCn1c2ccccc2c2c(CN3CCN(C)CC3)cccc21 [Example 32, 9-ethyl-4-((4-methylpiperazin-1-yl)methyl)-9H-carbazole]	21.9	> 30
CCn1c2ccccc2c2cc(CN3CCCC(c4nnc[nH]4)C3)ccc21 (centres unmarked) [Example 19, 3-((3-(4H-1,2,4-Triazol-3-yl)piperidin-1-yl)methyl)-9-ethyl-9H-carbazole]	0.99	0.59
CCn1c2ccccc2c2cccc(CN3CCN(C)CC3)c21 [Example 33, 9-ethyl-1-((4-methylpiperazin-1-yl)methyl)-9H-carbazole]	9.64	19
CCn1c2ccccc2c2cc(CN3CCCC(C(=O)N(C)C)C3)ccc21 (centres unmarked) [Example 20, 1-((9-ethyl-9H-carbazol-3-yl)methyl)-N,N-dimethylpiperidine-3-carboxamide]	1.1	3.38
CCn1c2ccccc2c2cc(CN3CCOCC3)ccc21 [Example 2, 4-((9-Ethyl-9H-carbazol-3-yl)methyl)morpholine]	2.23	11.1
CCn1c2ccccc2c2cc(CN3CCCC(n4ccnn4)C3)ccc21 (centres unmarked) [Example 18, 3-((3-(1H-1,2,3-triazol-1-yl)piperidin-1-yl)methyl)-9-ethyl-9H-carbazole]	2.28	1.72
c1ccc2c(c1)[nH]c1ccc(CN3CCCC(c4ccn[nH]4)C3)cc12 (centres unmarked) [Example 15, 3-((3-(1H-pyrazol-5-yl)piperidin-1-yl)methyl)-9H-carbazole]	52.6	37.6
CCn1c2ccccc2c2cc(CN3CC(C)CC(C)C3)ccc21 (centres unmarked) [Example 4, 3-((3,5-Dimethylpiperidin-1-yl)methyl)-9-ethyl-9H-carbazole]	9.62	18.2
CCn1c2ccccc2c2c(CN3CCCC(c4ccn[nH]4)C3)cccc21 (centres unmarked) [Example 31, 4-((3-(1H-pyrazol-5-yl)piperidin-1-yl)methyl)-9-ethyl-9H-carbazole]	18.4	14.8
CCn1c2ccccc2c2cc(CN3CCCC(c4ccn[nH]4)C3)ccc21 (centres unmarked) [Example 1, 3-((3-(1H-pyrazol-5-yl)piperidin-1-yl)methyl)-9-ethyl-9H-carbazole]	1.07	0.54
CCn1c2ccccc2c2cc(CN3CCCC(C)C3)ccc21 (centres unmarked) [Example 6, 9-Ethyl-3-((3-methylpiperidin-1-yl)methyl)-9H-carbazole]	4.39	5.97

SMILES	IC50 [1] [µM]	IC50 [2] [µM]
CCn1c2ccccc2c2cc(CN3CCCC(CO)C3)ccc21 (centres unmarked) [Example 12, (1-((9-Ethyl-9H-carbazol-3-yl)methyl)piperidin-3-yl)methanol]	1.46	3.16
CCn1c2ccccc2c2ccc(CN3CCCC(c4ccn[nH]4)C3)cc21 (centres unmarked) [Example 29, 2-((3-(1H-pyrazol-5-yl)piperidin-1-yl)methyl)-9-ethyl-9H-carbazole]	32.1	6.74
CCn1c2ccccc2c2cc(CN3CCC(O)CC3)ccc21 [Example 3, 1-((9-Ethyl-9H-carbazol-3-yl)methyl)piperidin-4-ol]	3.06	3.12
CCn1c2ccccc2c2cc(CN3CCCC(c4cn[nH]c4)C3)ccc21 (centres unmarked) [Example 24, 3-((3-(1H-pyrazol-4-yl)piperidin-1-yl)methyl)-9-ethyl-9H-carbazole]	4.34	0.57
CCn1c2ccccc2c2ccc(CN3CCN(C)CC3)cc21 [Example 34, 9-ethyl-2-((4-methylpiperazin-1-yl)methyl)-9H-carbazole]	8.55	35.4
CN(C)CCCn1c2ccccc2c2cc(CN3CCCC(C(N)=O)C3)ccc21 (centres unmarked) [Example 27, 1-((9-(3-(dimethylamino)propyl)-9H-carbazol-3-yl)methyl)piperidine-3-carboxamide]	> 30	> 30
CCn1c2ccccc2c2cccc(CN3CCCC(c4ccn[nH]4)C3)c21 (centres unmarked) [Example 30, 1-((3-(1H-pyrazol-5-yl)piperidin-1-yl)methyl)-9-ethyl-9H-carbazole]	37.4	> 100
CCn1c2c(c3cc(CN4CCCC(c5ccn[nH]5)C4)ccc31)CCCC2 (centres unmarked) [Example 22, 6-((3-(1H-pyrazol-5-yl)piperidin-1-yl)methyl)-9-ethyl-2,3,4,9-tetrahydro-1H-carbazole]	5.9	8.72
CCn1c2ccccc2c2cc(CN3CCCC3)ccc21 [Example 8, 9-Ethyl-3-(pyrrolidin-1-ylmethyl)-9H-carbazole]	8.5	7.55
CCn1c2ccccc2c2cc(CN3CCCC(c4ncc[nH]4)C3)ccc21 (centres unmarked) [Example 17, 3-((3-(1H-imidazol-2-yl)piperidin-1-yl)methyl)-9-ethyl-9H-carbazole]	2.28	0.53
CCn1c2ccccc2c2cc(CN3CCCC(C#N)C3)ccc21 (centres unmarked) [Example 13, 1-((9-Ethyl-9H-carbazol-3-yl)methyl)piperidine-3-carbonitrile]	1.03	2.56
CCOC(=O)C1CCCN(Cc2ccc3c(c2)c2ccccc2n3CC)C1 (centres unmarked) [Example 7, Ethyl 1-((9-ethyl-9H-carbazol-3-yl)methyl)piperidine-3-carboxylate]	3.83	5.57
CCn1c2ccccc2c2cc(CN3CCCC(C(N)=O)C3)ccc21 (centres unmarked) [Example 10, 1-((9-Ethyl-9H-carbazol-3-yl)methyl)piperidine-3-carboxamide]	0.18	0.68
CCn1c2ccccc2c2cc(CN3CCC(C)CC3)ccc21 [Example 5, 9-Ethyl-3-((4-methylpiperidin-1-yl)methyl)-9H-carbazole]	8.09	5.94
CCn1c2ccccc2c2cc(CN3CCCC(c4cnn[nH]4)C3)ccc21 (centres unmarked) [Example 23, 3-((3-(1H-1,2,3-triazol-5-yl)piperidin-1-yl)methyl)-9-ethyl-9H-carbazole]	0.96	0.09
CCn1c2ccccc2c2cc(CN3CCCC(C(=O)O)C3)ccc21 (centres unmarked) [Example 11, 1-((9-Ethyl-9H-carbazol-3-yl)methyl)piperidine-3-carboxylic acid]	6.15	9.91
CCn1c2ccccc2c2cc(CN3CCCC(c4nnn[nH]4)C3)ccc21 (centres unmarked) [Example 14, 3-((3-(1H-tetrazol-5-yl)piperidin-1-yl)methyl)-9-ethyl-9H-carbazole]	0.33	0.69
